BigSolDB 2.1

Oc1ccc(/C=C/c2cc(O)cc(O)c2)cc1
solubility (mole fraction)
Conditions	in THF	in acetone	in ethanol	in ethyl acetate	in isopropanol	in methanol	in n-butanol	in n-hexanol	in n-pentanol	in n-propanol
278.2 K	0.104	0.0849	0.0117	0.0062	0.0053	0.0108	0.0041	0.004	0.004	0.0068
288.2 K	0.106	0.0859	0.0139	0.0106	0.0062	0.012	0.0058	0.0052	0.0055	0.0088
298.2 K	0.109	0.0866	0.0169	0.0164	0.009	0.0135	0.0083	0.0075	0.0093	0.0113
308.2 K	0.112	0.0874	0.0198	0.0214	0.011	0.0151	0.0103	0.0087	0.0109	0.0128
318.2 K	0.114	0.0886	0.0223	0.0254	0.0138	0.0166	0.0122	0.0108	0.0143	0.0153
